Patent publication US20210023065A1, “AMPHIPHILIC THIOL COMPOUNDS AND USES THEREOF” (THE REGENTS OF THE UNIVERSITY OF CALIFORNIA, priority 2018, published 2021)

What was measured:
ERK1/2 (pY204/pY187) [1] = assay: Detection of ERK1/2 phosphorylation in T24 cells (western blot); format: cell-based, human; settings: T24 cells (oncogenic HRas mutation), 1.25 μmol/10^7 cells, 1 h
Description: (§1) T24 cells were grown to confluency in 6 cm plates. Stock solutions of compounds were prepared in DMSO as before and diluted to the final indicated concentration in 2 mL of OptiMEM media before adding to cells. Cells were incubated at 37° C. for 1 h and then media removed and 1.5 mL of HBSS added to each plate. Cells were detached using a cell scraper, pelleted by centrifugation at 1,000 rcf for 5 min and the pellet processed using MPER™ Mammalian Protein Extraction Reagent (ThermoFisher) with the addition of Halt Protease Inhibitor Cocktail (ThermoFisher) and 1 mM sodium orthovanadate. Samples were resolved by electrophoresis using 4-20% SDS-polyacrylamide gels (Bio-Rad) under denaturing and reducing conditions. Proteins were then electrotransferred to a PVDF membrane (Bio-Rad). The membrane was blocked with 3% BSA and then subjected to immunoblot analysis using AKT/MAPK Signaling Pathway Antibody Cocktail (ab151279) (Abcam) and secondary goat anti-rabbit IgG-HRP (sc-2030) (Santa Cruz Biotechnology). Chemiluminescent detection was performed by using SuperSignal West Pico PLUS chemiluminescent substrate (ThermoFisher) according to the manufacturer's instructions.
(§2) Assays were performed in 3 biological replicates. Western blots were analyzed using ImageJl. The intensity of the protein band in each condition was normalized to the intensity of the corresponding loading control (Rab11). […]

AKT1 (pS473) = assay: Detection of AKT1 phosphorylation in T24 cells (western blot); format: cell-based, human; settings: T24 cells (oncogenic HRas mutation), 1.25 μmol/10^7 cells, 1 h
Description: as §1, §2

ERK1/2 (pY204/pY187) [2] = assay: Detection of ERK1/2 phosphorylation in HeLa cells (western blot); format: cell-based; settings: 1.25 μmol/10^7 cells, 20 min, then EGF 5 min
Description: HeLa cells were grown to confluency in 6 cm plates and then serum starved overnight in OptiMEM. Stock solutions of compounds were prepared in DMSO as before and diluted to the final indicated concentration in 2 mL of OptiMEM media before adding to cells. Cells were incubated at 37° C. for 20 min and then stimulated with […] EGF (ThermoFisher) for 5 min. Media was then removed and cells washed once with HBSS. 1.5 mL of HBSS was then added to each plate. Cells were detached using a cell scraper, pelleted by centrifugation at 1,000 rcf for 5 min and the pellet processed using MPER™ Mammalian Protein Extraction Reagent (ThermoFisher) with the addition of Halt Protease Inhibitor Cocktail (ThermoFisher) and 1 mM sodium orthovanadate. Samples were resolved by electrophoresis using 4-20% SDS-polyacrylamide gels (Bio-Rad) under denaturing and reducing conditions. Proteins were then electrotransferred to a PVDF membrane (Bio-Rad). The membrane was blocked with 3% BSA and then subjected to immunoblot analysis using AKT/MAPK Signaling Pathway Antibody Cocktail (ab151279) (Abcam) and secondary goat anti-rabbit IgG-HRP (sc-2030) (Santa Cruz Biotechnology). […]
Assays were performed in 3 biological replicates. Western blots were analyzed using ImageJl. […]

EGFP-HRas = molecular target: T1, EGFP-HRas (Homo sapiens, UniProt P01112); assay: Live-cell imaging of EGFP-HRas localization in HeLa cells; format: cell-based
T1 construct: host or cells: HeLa
Description: Imaging was performed on an Axio Observer Z1 inverted microscope (Carl Zeiss Microscopy Gmb, Germany) with Yokogawa CSU-X1 spinning disk confocal unit using a 63×, 1.4 NA oil immersion or 20×, 0.8 NA objective to an ORCA-Flash4.0 V2 Digital CMOS camera (Hamamatsu, Japan). For live cell imaging, an incubation chamber with temperature and CO2 controllers (World Precision Instruments) was utilized. Fluorophores were excited with s diode laser (488 nm; 30 mW). Images were acquired using Zen Blue software (Carl Zeiss) and processed using Image J.^1
HeLa cells were plated at 40,000 cells/well in an 8-well Lab-Tek chamber slide (ThermoFisher) and allowed to adhere overnight. Cells were transfected with mEGFP-HRas or mEGFP-KRas4b using Lipofectamine 2000 (ThermoFisher) according to the manufacturer's protocol. 50 mM stocks of compounds 1 and 2 were prepared by dissolving the solid compound in DMSO containing 100 mM tris(2-S 3 carboxyethyl)phosphine hydrochloride (TCEP) as a preservative. From these stocks, a solution of 200 μM [1 or 2] (with 400 μM TCEP), or 400 μM TCEP was prepared in OptiMEM media. Before imaging, cells were exchanged into OptiMEM media. The diluted solutions were added to the indicated final concentration within individual wells of the chamber slide and cells imaged while maintaining 37° C., 5% CO2 in the incubation chamber. Images were acquired in 6 different locations across a minimum of 2 independent experiments. […] An unpaired t test was performed to determine the significance of the means before and after treatment.

T1 sequence (P01112 1-186 limits assumed): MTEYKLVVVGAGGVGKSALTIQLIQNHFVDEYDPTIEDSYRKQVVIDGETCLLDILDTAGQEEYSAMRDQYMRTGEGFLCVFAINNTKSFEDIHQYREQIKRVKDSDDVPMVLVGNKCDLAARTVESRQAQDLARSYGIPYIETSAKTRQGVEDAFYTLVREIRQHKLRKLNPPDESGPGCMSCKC

## CCCCCCCCNC(=O)[C@@H](N)CS [compound 1, H2N-L-Cys-Oct]
ERK1/2 (pY204/pY187) [1]
  ERK1/2 phosphorylation: near complete abrogation
AKT1 (pS473)
  AKT1 phosphorylation: near complete abrogation
ERK1/2 (pY204/pY187) [2]
  ERK1/2 phosphorylation after EGF stimulation: but not ERK1/2 phosphorylation
EGFP-HRas; EGFP-HRas transfected HeLa cells, before vs after treatment
  change in plasma membrane protein localization, statistical analysis of several hundred cells: significant change in plasma membrane protein localization
EGFP-HRas; HeLa cells, 1.25 μmol/10^7 cells, 20 min
  EGFP-HRas localization at the plasma membrane (fluorescence): EGFP-HRas localization at the plasma membrane decreased
